The assay deals with PANK2−/− IMR32 cells. Briefly: Coenzyme A assay in PANK2 silenced cells (LC-MS quantification of free CoA). Format: cell-based, human. As to conditions: Homo sapiens, IMR-32, fold increase in CoA levels relative to controls, treated twice, 24 h + 24 h; for fold induction at 50 µM: compound concentration 50 uM; for fold induction at 1 µM: compound concentration 1 uM; for fold induction at 10 µM: compound concentration 10 uM. The protocol: A human neuroblastoma IMR32 cell line (ATCC) with stably PANK2 silencing was obtained by lentiviral-delivered small hairpin RNA and cultured in MEM (Invitrogen) supplemented with 10% fetal bovine serum, 2 mM glutamine, 1% penicillin-streptomycin, 1 mM sodium pyruvate, 1 mM non-essential amino acids, and 1.5 g/l sodium bicarbonate.
A non-silencing shRNA construct (scrambled shRNA) and an empty vector expressing GFP alone were used as negative controls. The GFP tag subcloned into the lentiviral vectors was used to monitor the transfection efficiency.
Three days after transduction medium was removed and replaced with fresh medium containing […] puromycin. […] The level of PANK2 expression in selected clones was assessed by Western Blot analysis.
To quantify CoA, PANK2−/− IMR32 cells were plated on 12-well culture plates (Corning) at a density of 0.2×10^6 cells per well. […] Controls with medium containing 0.1% DMSO without test compounds were also included in each plate. […] Before LC-MS analysis of CoA levels, cells were harvested, counted, and collected in a 15 ml falcon tube and centrifuged at 200×g for 5 min at 4° C. Supernatant was removed and cell pellet was washed in 10 ml of ice-cold PBS. To further confirm that the numbers of cells in each sample were equivalent, an equal fraction of pellet was collected from each sample and subjected to protein determination analysis. After centrifugation and supernatant removal, the cell pellet was rapidly frozen in Liquid Nitrogen and stored at −80° C. until analysis.
Intracellular CoA levels were calculated considering an intracellular volume of 1 million cells=2 μl.
The 1*10^6 cellular pellet was extracted with 120 μl of aqueous 20% TFA.
100 μL samples of supernatant were dried under N2 at 20° C. in the dark.
Samples were re-dissolved in 100 μl of 10 mM NH4^+ AcO^− buffer pH 5.1+IS (Dextrorphan 50 ng/ml), stirred for 2 min, sonicated in ultrasonic bath for 1 min, then stirred again for 1 min, and injected into LC-MS.
LC-MS/MS was performed using an Agilent HPLC (1100 Series, USA). The LC system was interfaced with an API-4000 Q-Trap triple quadrupole mass spectrometer (AB Sciex, Toronto, Canada) equipped with a TurboIonSpray ionization source operating in positive ion mode. Analyst™ software version 1.6 (AB Sciex, Toronto, Canada) was used for data acquisition and processing. CoA was separated using a Luna C18 column (2.0×50 mm; 5 μm particle size), column at 25° C. and flow rate of 0.2 ml/min. Injection volume was 15 μl. The mobile phases consisted of water containing 10 mM ammonium acetate pH 7 (mobile phase A) and MeCN-2-propanol 9:1 (mobile phase B).
Results are expressed as fold increase in CoA levels relative to controls (using LC-MS quantification of free CoA).

Our source for the fold induction values is patent US20190337971A1, “PANTETHEINE DERIVATIVES FOR THE TREATMENT OF NEUROLOGIC DISORDERS” (Retrophin, Inc., priority 2016, published 2019).

Each structure is given as a SMILES string.

Regarding `COC(=O)[C@H](C)N[P@]1(=O)OCC(C)(C)[C@H](C(=O)NCCC(=O)NCCSC(C)=O)O1` [R1004, methyl ((2S,4R)-4-((3-((2-(acetylthio)ethyl)amino)-3-oxopropyl)carbamoyl)-5,5-dimethyl-2-oxido-1,3,2-dioxaphosphinan-2-yl)-L-alaninate], the fold induction at 50 µM is 2.1.
`CC(=O)SCCNC(=O)CCNC(=O)[C@@H]1OP(=O)(OCOC(=O)c2ccccc2)OCC1(C)C` (stereo partly drawn) [R1009, (((4R)-4-((3-((2-(acetylthio)ethyl)amino)-3-oxopropyl)carbamoyl)-5,5-dimethyl-2-oxido-1,3,2-dioxaphosphinan-2-yl)oxy)methyl benzoate]: the fold induction at 1 µM came to 69.5.
Still for that read-out and setting: with `CC(=O)SCCNC(=O)CCNC(=O)[C@@H]1OP(=O)(OCOC(=O)c2cc(C(C)(C)C)nn2C)OCC1(C)C` (stereo partly drawn) [R1010, (((4R)-4-((3-((2-(acetylthio)ethyl)amino)-3-oxopropyl)carbamoyl)-5,5-dimethyl-2-oxido-1,3,2-dioxaphosphinan-2-yl)oxy)methyl 3-(tert-butyl)-1-methyl-1H-pyrazole-5-carboxylate] the figure was 200.
On to `COC(=O)[C@@H](N[P@@]1(=O)OCC(C)(C)[C@H](C(=O)NCCC(=O)NCCSC(C)=O)O1)C(C)C` [R1014, methyl ((2R,4R)-4-((3-((2-(acetylthio)ethyl)amino)-3-oxopropyl)carbamoyl)-5,5-dimethyl-2-oxido-1,3,2-dioxaphosphinan-2-yl)-L-valinate], for which the fold induction at 50 µM amounted to 1.7.
`CC(=O)SCCNC(=O)CCNC(=O)[C@@H]1O[P@@](=O)(OCOC(=O)c2cc(C(C)(C)C)n[nH]2)OCC1(C)C` [R1016, (((2S,4R)-4-((3-((2-(acetylthio)ethyl)amino)-3-oxopropyl)carbamoyl)-5,5-dimethyl-2-oxido-1,3,2-dioxaphosphinan-2-yl)oxy)methyl 3-(tert-butyl)-1H-pyrazole-5-carboxylate]: the fold induction at 1 µM was 323.
The same measure, in the same setting: with `CC(=O)SCCNC(=O)CCNC(=O)[C@@H]1O[P@@](=O)(OCOC(=O)OC(C)C)OCC1(C)C` [R1017, S-(2-(3-((2S,4R)-2-(((isopropoxycarbonyl)oxy)methoxy)-5,5-dimethyl-2-oxido-1,3,2-dioxaphosphinane-4-carboxamido)propanamido)ethyl) ethanethioate] the figure was 18.4; with `CC(=O)SCCNC(=O)CCNC(=O)[C@@H]1OP(=O)(OCOC(=O)C(C)C)OCC1(C)C` (stereo partly drawn) [R1024, (((4R)-4-((3-((2-(acetylthio)ethyl)amino)-3-oxopropyl)carbamoyl)-5,5-dimethyl-2-oxido-1,3,2-dioxaphosphinan-2-yl)oxy)methyl isobutyrate], 1.4.
As for `CC(=O)OCCNC(=O)OCOP1(=O)OCC(C)(C)[C@H](C(=O)NCCC(=O)NCCSC(C)=O)O1` (stereo partly drawn) [R1025, 2-((((((4R)-4-((3-((2-(acetylthio)ethyl)amino)-3-oxopropyl)carbamoyl)-5,5-dimethyl-2-oxido-1,3,2-dioxaphosphinan-2-yl)oxy)methoxy)carbonyl)amino)ethyl acetate], the fold induction at 10 µM is 1.4.
On to `COC(=O)[C@@H](NP1(=O)OCC(C)(C)[C@H](C(=O)NCCC(=O)NCCSC(C)=O)O1)C(C)C` (stereo partly drawn) [R1026, methyl ((4R)-4-((3-((2-(acetylthio)ethyl)amino)-3-oxopropyl)carbamoyl)-5,5-dimethyl-2-oxido-1,3,2-dioxaphosphinan-2-yl)-L-valinate], for which the fold induction at 50 µM came out at 2.5.
On the same count and under the same terms, with `CC(=O)OCC(C)(C)NC(=O)OCOP1(=O)OCC(C)(C)[C@H](C(=O)NCCC(=O)NCCSC(C)=O)O1` (stereo partly drawn) [R1027, 2-((((((4R)-4-((3-((2-(acetylthio)ethyl)amino)-3-oxopropyl)carbamoyl)-5,5-dimethyl-2-oxido-1,3,2-dioxaphosphinan-2-yl)oxy)methoxy)carbonyl)amino)-2-methylpropyl acetate] the figure was 2.8.
Turning to `CC(=O)SCCNC(=O)CCNC(=O)[C@@H]1OP(=O)(OCOC(=O)NC(C)(C)COC(=O)C(C)(C)C)OCC1(C)C` (stereo partly drawn) [R1028, 2-((((((4R)-4-((3-((2-(acetylthio)ethyl)amino)-3-oxopropyl)carbamoyl)-5,5-dimethyl-2-oxido-1,3,2-dioxaphosphinan-2-yl)oxy)methoxy)carbonyl)amino)-2-methylpropyl pivalate], the fold induction at 50 µM is 5.7.
With `CC(=O)SCCNC(=O)CCNC(=O)[C@@H]1OP(=O)(OCOC(=O)N[C@@H](CSC(=O)C(C)(C)C)C(=O)OCc2ccccc2)OCC1(C)C` (stereo partly drawn) [R1029, benzyl N-(((((4R)-4-((3-((2-(acetylthio)ethyl)amino)-3-oxopropyl)carbamoyl)-5,5-dimethyl-2-oxido-1,3,2-dioxaphosphinan-2-yl)oxy)methoxy)carbonyl)-S-pivaloyl-L-cysteinate], the fold induction at 50 µM came out at 120.
In the case of `CC(=O)SCCNC(=O)CCNC(=O)[C@@H]1O[P@@](=O)(OCOC(=O)NCCOC(=O)C(C)(C)C)OCC1(C)C` [R1030, 2-((((((2S,4R)-4-((3-((2-(acetylthio)ethyl)amino)-3-oxopropyl)carbamoyl)-5,5-dimethyl-2-oxido-1,3,2-dioxaphosphinan-2-yl)oxy)methoxy)carbonyl)amino)ethyl pivalate], the fold induction at 10 µM came to 7.1.
With `CC(=O)SCCNC(=O)CCNC(=O)[C@@H]1OP(=O)(OCOC(=O)NCCOC(=O)[C@@H](N)C(C)C)OCC1(C)C` (stereo partly drawn) [R1032, 2-((((((4R)-4-((3-((2-(acetylthio)ethyl)amino)-3-oxopropyl)carbamoyl)-5,5-dimethyl-2-oxido-1,3,2-dioxaphosphinan-2-yl)oxy)methoxy)carbonyl)amino)ethyl L-valinate], the fold induction at 50 µM was found to be 1.
In the case of `CC(=O)SCCNC(=O)CCNC(=O)[C@@H]1OP(=O)(OCOC(=O)c2ccc(Cl)cc2)OCC1(C)C` (stereo partly drawn) [R1033, (((4R)-4-((3-((2-(acetylthio)ethyl)amino)-3-oxopropyl)carbamoyl)-5,5-dimethyl-2-oxido-1,3,2-dioxaphosphinan-2-yl)oxy)methyl 4-chlorobenzoate], the fold induction at 1 µM came out at 25.8.
Same read-out and setting: to `CC(=O)SCCNC(=O)CCNC(=O)[C@@H]1OP(=O)(OCOC(=O)c2cccc(Cl)c2)OCC1(C)C` (stereo partly drawn) [R1034, (((4R)-4-((3-((2-(acetylthio)ethyl)amino)-3-oxopropyl)carbamoyl)-5,5-dimethyl-2-oxido-1,3,2-dioxaphosphinan-2-yl)oxy)methyl 3-chlorobenzoate] belongs 29.6; to `COc1ccc(C(=O)OCOP2(=O)OCC(C)(C)[C@H](C(=O)NCCC(=O)NCCSC(C)=O)O2)cc1` (stereo partly drawn) [R1035, (((4R)-4-((3-((2-(acetylthio)ethyl)amino)-3-oxopropyl)carbamoyl)-5,5-dimethyl-2-oxido-1,3,2-dioxaphosphinan-2-yl)oxy)methyl 4-methoxybenzoate], 18.
Same read-out and setting: to `CC(=O)SCCNC(=O)CCNC(=O)[C@@H]1OP(=O)(OCOC(=O)c2ccc(C)cc2)OCC1(C)C` (stereo partly drawn) [R1036, (((4R)-4-((3-((2-(acetylthio)ethyl)amino)-3-oxopropyl)carbamoyl)-5,5-dimethyl-2-oxido-1,3,2-dioxaphosphinan-2-yl)oxy)methyl 4-methylbenzoate] belongs 52.2; to `CC(=O)SCCNC(=O)CCNC(=O)[C@@H]1OP(=O)(OCOC(=O)c2ccc(C(F)(F)F)cc2)OCC1(C)C` (stereo partly drawn) [R1037, (((4R)-4-((3-((2-(acetylthio)ethyl)amino)-3-oxopropyl)carbamoyl)-5,5-dimethyl-2-oxido-1,3,2-dioxaphosphinan-2-yl)oxy)methyl 4-(trifluoromethyl)benzoate], 30.1.
